Data: US20230416225A1, “DIAMINOPYRIMIDINE CARBOXAMIDE INHIBITORS OF HPK1” (MERCK SHARP & DOHME LLC, priority 2020, published 2023)

Molecular target: T1, Human HPK1, catalytic domain (Homo sapiens, UniProt Q92918)
T1 construct: purchased Carna
T1 sequence (Q92918 1-346): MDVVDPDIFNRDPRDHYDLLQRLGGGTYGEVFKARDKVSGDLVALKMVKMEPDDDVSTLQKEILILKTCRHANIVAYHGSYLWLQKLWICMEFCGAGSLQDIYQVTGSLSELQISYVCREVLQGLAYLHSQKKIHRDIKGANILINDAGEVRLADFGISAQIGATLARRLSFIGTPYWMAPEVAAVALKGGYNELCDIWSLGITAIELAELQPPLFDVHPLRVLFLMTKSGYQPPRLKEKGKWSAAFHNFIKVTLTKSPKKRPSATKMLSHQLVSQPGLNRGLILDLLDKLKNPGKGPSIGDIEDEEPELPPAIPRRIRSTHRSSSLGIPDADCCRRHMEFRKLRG
Experiment: HPK1-SLP76 TR-FRET assay
Assay type: biochemical
Conditions: 75 pM HPK1, 10 uM ATP, 10 nM SLP76, 30 min compound pre-incubation

Compared with `COc1cc2c(cc1Nc1ncc(C(N)=O)c(NC3CCc4ccc(F)cc43)n1)CN(C)CC2` (centres unmarked) [Example 26-25, 4-[(6-fluoro-2,3-dihydro-1H-inden-1-yl)amino]-2-[(6-methoxy-2-methyl-1,2,3,4-tetrahydroisoquinolin-7-yl)amino]pyrimidine-5-carboxamide], `COc1cc2c(cc1Nc1ncc(C(N)=O)c(N[C@@H]3CCCc4cc(F)ccc43)n1)CN(C)CC2` [Example 26-46, 4-{[(1R)-6-fluoro-1,2,3,4-tetrahydronaphthalen-1-yl]amino}-2-[(6-methoxy-2-methyl-1,2,3,4-tetrahydroisoquinolin-7-yl)amino]pyrimidine-5-carboxamide] is 140-fold higher in IC50: 0.22 nM for the first, 29.7 nM for the second. The first is the more potent here.

First: COc1cc2c(cc1Nc1ncc(C(N)=O)c(N[C@H]3C[C@H]4CC[C@@H](C3)N4C)n1)CN(C)CC2 [Example 26-26, 2-[(6-methoxy-2-methyl-1,2,3,4-tetrahydroisoquinolin-7-yl)amino]-4-{[(1R,3r,5S)-8-methyl-8-azabicyclo[3.2.1]octan-3-yl]amino}pyrimidine-5-carboxamide]
Second: COc1cc2c(cc1Nc1ncc(C(N)=O)c(NC3CC4CCC(C3)N4)n1)CN(C)CC2 (centres unmarked) [Example 26-27, 4-[(8-azabicyclo[3.2.1]octan-3-yl)amino]-2-[(6-methoxy-2-methyl-1,2,3,4-tetrahydroisoquinolin-7-yl)amino]pyrimidine-5-carboxamide]
The IC50 of the first is 32-fold lower: 3.31 nM for the first, 106 nM for the second.

Compared with `COC[C@H]1CCC[C@H]1Nc1nc(Nc2cc3c(cc2OC)CCN(C)C3)ncc1C(N)=O` [Example 26-28, 4-{[(1R,2S)-2-(methoxymethyl)cyclopentyl]amino}-2-[(6-methoxy-2-methyl-1,2,3,4-tetrahydroisoquinolin-7-yl)amino]pyrimidine-5-carboxamide], `C#CC[C@H]1CCC[C@H]1Nc1nc(Nc2cc3c(cc2OC)CCN(C)C3)ncc1C(N)=O` [Example 26-40, 2-[(6-methoxy-2-methyl-1,2,3,4-tetrahydroisoquinolin-7-yl)amino]-4-{[(1R,2R)-2-(prop-2-yn-1-yl)cyclopentyl]amino}pyrimidine-5-carboxamide] is 2.4-fold lower in IC50: 4.92 nM for the first, 2.08 nM for the second.

Compared with `COc1cc2c(cc1Nc1ncc(C(N)=O)c(N[C@H]3CC[C@H](C)CC3)n1)CN(C)CC2` [Example 26-29, 2-[(6-methoxy-2-methyl-1,2,3,4-tetrahydroisoquinolin-7-yl)amino]-4-[(trans-4-methylcyclohexyl)amino]pyrimidine-5-carboxamide], `COc1cc2c(cc1Nc1ncc(C(N)=O)c(NC3CCC(OC)CC3)n1)CN(C)CC2` (centres unmarked) [Example 26-31, 4-[(4-methoxycyclohexyl)amino]-2-[(6-methoxy-2-methyl-1,2,3,4-tetrahydroisoquinolin-7-yl)amino]pyrimidine-5-carboxamide] is 3.6-fold higher in IC50: 1.43 nM for the first, 5.18 nM for the second. The first is the more potent here.

Compared with `COc1cc2c(cc1Nc1ncc(C(N)=O)c(NC3C4CCC3CNC4)n1)CN(C)CC2` (centres unmarked) [Example 26-30, 4-[(3-azabicyclo[3.2.1]octan-8-yl)amino]-2-[(6-methoxy-2-methyl-1,2,3,4-tetrahydroisoquinolin-7-yl)amino]pyrimidine-5-carboxamide], `COc1cc2c(cc1Nc1ncc(C(N)=O)c(N[C@@H]3CCCC[C@@H]3C)n1)CN(C)CC2` [Example 26-41, 2-[(6-methoxy-2-methyl-1,2,3,4-tetrahydroisoquinolin-7-yl)amino]-4-{[(1R,2S)-2-methylcyclohexyl]amino}pyrimidine-5-carboxamide] is 200-fold lower in IC50: 28.6 nM for the first, 0.14 nM for the second.

First: COc1cc2c(cc1Nc1ncc(C(N)=O)c(N[C@@H]3CCCC[C@H]3CO)n1)CN(C)CC2 [Example 26-32, 4-{[(1R,2R)-2-(hydroxymethyl)cyclohexyl]amino}-2-[(6-methoxy-2-methyl-1,2,3,4-tetrahydroisoquinolin-7-yl)amino]pyrimidine-5-carboxamide]
Second: COc1cc2c(cc1Nc1ncc(C(N)=O)c(N[C@@H]3CCCC[C@H]3C(C)(C)O)n1)CN(C)CC2 [Example 26-42, 4-{[(1R,2R)-2-(2-hydroxypropan-2-yl)cyclohexyl]amino}-2-[(6-methoxy-2-methyl-1,2,3,4-tetrahydroisoquinolin-7-yl)amino]pyrimidine-5-carboxamide]
The IC50 of the first is 200-fold lower: 1.02 nM for the first, 205 nM for the second. The first is the more potent here.

Compared with `COc1cc2c(cc1Nc1ncc(C(N)=O)c(N[C@@H]3CCCC[C@H]3C(F)F)n1)CN(C)CC2` [Example 26-33, 4-{[(1R,2R)-2-(difluoromethyl)cyclohexyl]amino}-2-[(6-methoxy-2-methyl-1,2,3,4-tetrahydroisoquinolin-7-yl)amino]pyrimidine-5-carboxamide], `COc1cc2c(cc1Nc1ncc(C(N)=O)c(N[C@H](CO)C3CCCCC3)n1)CN(C)CC2` [Example 26-48, 4-{[(1S)-1-cyclohexyl-2-hydroxyethyl]amino}-2-[(6-methoxy-2-methyl-1,2,3,4-tetrahydroisoquinolin-7-yl)amino]pyrimidine-5-carboxamide] is 50-fold higher in IC50: 0.46 nM for the first, 22.8 nM for the second.

Going from `COc1cc2c(cc1Nc1ncc(C(N)=O)c(NC3CCc4cccc(OC)c43)n1)CN(C)CC2` (centres unmarked) [Example 26-34, 4-[(7-methoxy-2,3-dihydro-1H-inden-1-yl)amino]-2-[(6-methoxy-2-methyl-1,2,3,4-tetrahydroisoquinolin-7-yl)amino]pyrimidine-5-carboxamide] to `COc1cc2c(cc1Nc1ncc(C(N)=O)c(N[C@H]3CCc4ccccc43)n1)CN(C)CC2` [Example 26-37, 4-{[(1S)-2,3-dihydro-1H-inden-1-yl]amino}-2-[(6-methoxy-2-methyl-1,2,3,4-tetrahydroisoquinolin-7-yl)amino]pyrimidine-5-carboxamide], the IC50 falls from 9.66 nM to 0.38 nM (25-fold). The second is the more potent here.

Going from `COc1cc2c(cc1Nc1ncc(C(N)=O)c(NCc3cccc(C(F)(F)F)c3)n1)CN(C)CC2` [Example 26-35, 2-[(6-methoxy-2-methyl-1,2,3,4-tetrahydroisoquinolin-7-yl)amino]-4-({[3-(trifluoromethyl)phenyl]methyl}amino)pyrimidine-5-carboxamide] to `COc1cc2c(cc1Nc1ncc(C(N)=O)c(NCc3ccccc3)n1)CN(C)CC2` [Example 26-36, 4-(benzylamino)-2-[(6-methoxy-2-methyl-1,2,3,4-tetrahydroisoquinolin-7-yl)amino]pyrimidine-5-carboxamide], the IC50 falls from 52.8 nM to 6.05 nM (8.7-fold). The second is the more potent here.

Going from `COc1cc2c(cc1Nc1ncc(C(N)=O)c(NC3CCC(F)(F)C3)n1)CN(C)CC2` (centres unmarked) [Example 26-38, 4-[(3,3-difluorocyclopentyl)amino]-2-[(6-methoxy-2-methyl-1,2,3,4-tetrahydroisoquinolin-7-yl)amino]pyrimidine-5-carboxamide] to `C#C[C@H]1CC[C@@H](Nc2nc(Nc3cc4c(cc3OC)CCN(C)C4)ncc2C(N)=O)CC1` [Example 26-39, 4-[(cis-4-ethynylcyclohexyl)amino]-2-[(6-methoxy-2-methyl-1,2,3,4-tetrahydroisoquinolin-7-yl)amino]pyrimidine-5-carboxamide], the IC50 falls from 1.07 nM to 0.34 nM (3.1-fold). The second is the more potent here.

Going from `COc1cc2c(cc1Nc1ncc(C(N)=O)c(N[C@H](CO)c3ccccc3)n1)CN(C)CC2` [Example 26-43, 4-{[(1S)-2-hydroxy-1-phenylethyl]amino}-2-[(6-methoxy-2-methyl-1,2,3,4-tetrahydroisoquinolin-7-yl)amino]pyrimidine-5-carboxamide] to `COc1cc2c(cc1Nc1ncc(C(N)=O)c(NCc3ccncc3)n1)CN(C)CC2` [Example 26-55, 2-[(6-methoxy-2-methyl-1,2,3,4-tetrahydroisoquinolin-7-yl)amino]-4-{[(pyridin-4-yl)methyl]amino}pyrimidine-5-carboxamide], the IC50 rises from 6.59 nM to 224 nM (34-fold).

Compared with `NC(=O)c1cnc(Nc2ccc3c(c2)COC3=O)nc1N[C@H](CO)c1ccccc1` [Example 26-44, 4-{[(1S)-2-hydroxy-1-phenylethyl]amino}-2-[(1-oxo-1,3-dihydro-2-benzofuran-5-yl)amino]pyrimidine-5-carboxamide], `NC(=O)c1cnc(Nc2ccc3c(c2)CNCC3)nc1NC1CCc2cc(F)c(F)cc21` (centres unmarked) [Example 26-53, 4-[(5,6-difluoro-2,3-dihydro-1H-inden-1-yl)amino]-2-[(1,2,3,4-tetrahydroisoquinolin-7-yl)amino]pyrimidine-5-carboxamide] is 400-fold lower in IC50: 92.1 nM for the first, 0.23 nM for the second. The second is the more potent here.

Going from `COc1cc2c(cc1Nc1ncc(C(N)=O)c(NCc3c(F)ccc(F)c3F)n1)CN(C)CC2` [Example 26-45, 2-[(6-methoxy-2-methyl-1,2,3,4-tetrahydroisoquinolin-7-yl)amino]-4-{[(2,3,6-trifluorophenyl)methyl]amino}pyrimidine-5-carboxamide] to `COc1cc2c(cc1Nc1ncc(C(N)=O)c(N[C@H]3CCCc4cc(F)ccc43)n1)CN(C)CC2` [Example 26-47, 4-{[(1S)-6-fluoro-1,2,3,4-tetrahydronaphthalen-1-yl]amino}-2-[(6-methoxy-2-methyl-1,2,3,4-tetrahydroisoquinolin-7-yl)amino]pyrimidine-5-carboxamide], the IC50 rises from 0.51 nM to 3.01 nM (5.9-fold).

Compared with `Cn1cc(Nc2ncc(C(N)=O)c(N[C@H](CO)C3CCCCC3)n2)cn1` [Example 26-49, 4-{[(1S)-1-cyclohexyl-2-hydroxyethyl]amino}-2-[(1-methyl-1H-pyrazol-4-yl)amino]pyrimidine-5-carboxamide], `NC(=O)c1cnc(Nc2cnn(C3CCNCC3)c2)nc1NC1CCc2cc(F)c(F)cc21` (centres unmarked) [Example 26-50, 4-[(5,6-difluoro-2,3-dihydro-1H-inden-1-yl)amino]-2-{[1-(piperidin-4-yl)-1H-pyrazol-4-yl]amino}pyrimidine-5-carboxamide] is 1.9-fold lower in IC50: 78.8 nM for the first, 40.6 nM for the second. The second is the more potent here.

`CN1CCc2cc(F)c(Nc3ncc(C(N)=O)c(NC4CCc5cc(F)c(F)cc54)n3)cc2C1` (centres unmarked) [Example 26-54, 4-[(5,6-difluoro-2,3-dihydro-1H-inden-1-yl)amino]-2-[(6-fluoro-2-methyl-1,2,3,4-tetrahydroisoquinolin-7-yl)amino]pyrimidine-5-carboxamide] was tested, and the IC50 was 0.97 nM.
